Columns and labels:
Assay in all cases: Cy3/quencher fluorescence titration, Langmuir fit
[1] = tested on: Combined TAT80/A-C Mismatch (DNA, aptamer) CACCTGGGGGAGTATTGCGGAGGAAGGTTTTGAAGAAAAAGATTGCTCTTTTTCTTATTGTTTCTTTTTCTATTTACCCCCAAGTG; details: 6 mM MgCl2; Na+ (concentration not stated); 10 mM Tris, 10 mM Bis-Tris, 10 mM sodium acetate, pH 6.5, room temperature; apparent, intramolecular displacement strand competes
[2] = tested on: A-C Mismatch (DNA, aptamer) CACCTGGGGGAGTATTGCGGAGGAAGGTTTTTTTTTTTTTACCCCCAAGTG; details: 6 mM MgCl2; Na+ (concentration not stated); 10 mM Tris, 10 mM Bis-Tris, 10 mM sodium acetate, pH 8, room temperature; apparent, intramolecular displacement strand competes
[3] = tested on: A-G Mismatch (DNA, aptamer) CACCTGGGGGAGTATTGCGGAGGAAGGTTTTTTTTTTTTTTTCCCAAGGTG; details: 6 mM MgCl2; Na+ (concentration not stated); 10 mM Tris, 10 mM Bis-Tris, 10 mM sodium acetate, pH 7.5, room temperature; apparent, intramolecular displacement strand competes
[4] = tested on: TAT60 (DNA, aptamer) CACCTGGGGGAGTATTGCGGAGGAAGGTTTTGAGGGAAAGAATCATTTCTTTCCCTATGTTTCCCTTTCTTTTTAACCAGGTG; details: 6 mM MgCl2; Na+ (concentration not stated); 10 mM Tris, 10 mM Bis-Tris, 10 mM sodium acetate, pH 7, room temperature; apparent, intramolecular displacement strand competes

Nc1ncnc2c1ncn2[C@@H]1O[C@H](COP(=O)(O)OP(=O)(O)OP(=O)(O)O)[C@@H](O)[C@H]1O
KDeff [1]: 32 (95% CI 27–39) μM
KDeff [2]: 0.30 (95% CI 0.25–0.36) mM
KDeff [3]: 0.32 (95% CI 0.27–0.37) mM
KDeff [4]: 3.9 (95% CI 3.2–4.8) mM

From article PMC7286914 (2020)
